Experiments:
[1] = cited from earlier work
Avastin = test: Release of active Avastin from microparticles with excipients, activity by ELISA; settings: excipients added during fabrication
Protocol: FIGS. 27A-27F show the release of Avastin from microparticles. FIG. 27A is a heat map depicting the sum of the percentage of Avastin inside the microparticles and Avastin released from the microparticles. Data is normalized to amount of Avastin filled into microparticles. […] Avastin activity was measured using an ELISA. The excipients that were studied were bovine serum albumin (BSA) and sorbitol: monosodium glutamate (MSG): magnesium chloride (MgCl2). FIGS. 27B-27I show plots of the release kinetics of the microparticle formulations of FIG. 27A. The release kinetics depicted in FIG. 27B are for a microparticle with 3 μg BSA as an excipient. The release kinetics depicted in FIG. 27C are for a microparticle with 2 μg BSA as an excipient. […]
Due to concern about the thermal stress potential involved when heating up biotherapeutics which may be desirable as a payload of the microparticles described herein, the temperature of the microparticles was measured during the sealing process to determine the peak temperature and duration of exposure to elevated temperature to quantify the thermal stress that the protein might experience (FIG. 25). […] To determine if these temperatures would damage encapsulated biotherapeutics, the stability of horseradish peroxidase (HRP), was assessed after every step in the formulation process (dispensing, drying, and sealing). […]

In the case of `CC(C)Cn1cnc2c(N)nc3ccccc3c21` [imiquimod], the solubility in water [1] is listed as “approximately 2 μg/mL”.

For “Avastin: a fragile biotherapeutic used to treat certain cancers”, the “Avastin remaining after release” value (Avastin) was “significant amounts”.

Reference: patent US20250281410A1, “HIGH-THROUGHPUT PREPARATION OF MICROPARTICLES WITH PULSATILE RELEASE” (William Marsh Rice University, priority 2021, published 2025)
